The results in this text go back to ChEMBL document CHEMBL2040776, “Docking, synthesis and pharmacological activity of novel urea-derivatives designed as p38 MAPK inhibitors” (Eur J Med Chem, 2012).

Each structure is given as a SMILES string. Calls of active or inactive are those of the source. The rule behind the calls is not given here.

Test [1] in a line: Cytotoxicity against BALB/c mouse peritoneal macrophages after 20 hrs by MTT assay. The conditions noted are these: Peritoneal macrophage cell. The test is classed as cell-based. For orientation: Formazan colour is commonly taken as a measure of viable cells.
Test [2] is described as follows: Antiinflammatory activity in BALB/c mouse peritoneal macrophages assessed as inhibition of LPS-induced TNFalpha production treated 1 hr before LPS challenge measured after 24 hrs by ELISA. The class given is functional, cell-based. The conditions noted are these: Peritoneal macrophage cell. On the technique in general: ELISA stands for enzyme-linked immunosorbent assay.

For test [3], the system named is Rattus norvegicus. Nature of the test: Antihypernociceptive activity in Wistar rat assessed as inhibition of capsaicin-induced thermal hypernociception by measuring paw withdrawal latency at 100 umol/kg, po administered 1 hr before capsaicin challenge measured after 10 mins. The test is classed as functional, organism-based.
Test [4] in a line: Antiinflammatory activity in BALB/c mouse peritoneal macrophages assessed as inhibition of LPS-induced TNFalpha production at 100 uM treated 1 hr before LPS challenge measured after 24 hrs by ELISA. The class given is functional. The conditions noted are these: Peritoneal macrophage cell.
The target in another test is MAP kinase p38 (Mus musculus, UniProt P47811+O08911+Q9WUI1+Q9Z1B7). The experiment in a line: Inhibition of LPS-induced p38 MAPK activation in BALB/c mouse peritoneal macrophages.
The test system of the next test is Mus musculus. The experiment in a line: Antihypernociceptive activity in po dosed BALB/c mouse methylated bovine serum albumin-induced arthritis model assessed as paw withdrawal latency administered 30 mins before mBSA challenge followed by second dose after 7 hrs by electronic Von Frey method. The class given is functional, organism-based.
Test [5] concerns Rattus norvegicus. Nature of the test: Antiinflammatory activity in Wistar rat assessed as inhibition of carrageenan-induced paw oedema at 100 umol/kg, po after 1 hr. The class given is functional, organism-based.
Test [6] deals with Rattus norvegicus. Nature of the test: Antiinflammatory activity in Wistar rat assessed as inhibition of carrageenan-induced paw oedema at 100 umol/kg, po after 3 hrs. The class given is functional, organism-based. (The carrageenan paw model is a standard test of acute inflammation.)

As usually defined, the IC50 is the concentration that gives 50% inhibition. Compound `CCOC(=O)c1cc2cc3c(cc2nc1NC(=O)Nc1ccccc1)OCO3` gave an IC50 in test [1] of 42.7 µM.

The inhibition is the share of the control response that was lost under treatment. Take `C[S+]([O-])c1ccc(-c2nc(-c3ccc(F)cc3)c(-c3ccncc3)[nH]2)cc1` (stereo not drawn) [SB-203580]: the IC50 in test [2] is 0.22 µM. In addition, the inhibition result with Rattus norvegicus [3] was “Active”.

On to `CCOC(=O)c1cc2cc3c(cc2nc1NC(=O)Nc1ccc([N+](=O)[O-])cc1)OCO3`, for which the inhibition entry with Rattus norvegicus [3] was “Active”.

For `CCOC(=O)c1cc2cc3c(cc2nc1NC(=O)NC1CCCCC1)OCO3`, in test [4], the inhibition at 100 µM was found to be 50%. In addition, the IC50 is 14 µM against MAP kinase p38, 55 µM in test [2] and 46.7 µM in test [1]. Moreover, the Activity entry in the test with Mus musculus was “Dose-dependent effect”. In addition, the inhibition entry in the test with Rattus norvegicus [5], in the test with Rattus norvegicus [3] and with Rattus norvegicus [6] was “Active” in each case.

For `CCOC(=O)c1cc2cc3c(cc2nc1NC(=O)Nc1ccc(Br)cc1)OCO3`, in the test on Rattus norvegicus [3], the inhibition entry is “Active”.
